Test results reported in patent US9376418B2, “Substituted pyridine spleen tyrosine kinase (SYK) inhibitors” (Merck Sharp & Dohme Corp., priority 2012, dated 2016).

Each compound was assayed against T1, recombinant human GST-SYK (Homo sapiens, UniProt P43405) (assay: Homogeneous Time-Resolved Fluorescence (HTRF) assay for the recombinant human Syk enzyme). Conditions: HTRF assay, recombinant human GST-SYK; IC50 given as class symbols; read-out: rhSYK Activity.
T1 construct: purchased Carna Biosciences 08-176
Assay type: biochemical
Method in brief: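 GST-hSYK ([…]) was preincubated with inhibitor (0.1% DMSO) for 10 min at room temperature in Tris-HCl pH 7.5 with tween 20 and DTT. Biotinylated peptide (250 nM), Mg (5 mM) and ATP (25 μM) were added for 45 min. The reaction was quenched with EDTA, and phosphotyrosine was read by Eu-antibody/SA-APC HTRF after 30 min.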

Row | Compound | IC50
1 | Cc1cc(Nc2nccc(C(F)(F)F)n2)cc(-c2ccc(C(=O)N3CCCC(C)(O)C3)nc2)c1 (stereo not drawn) [Example 16.47, 3-methyl-1-{[5-(3-methyl-5-{[4-(trifluoromethyl)pyrimidin-2-yl]amino}phenyl)pyridin-2-yl]carbonyl}piperidin-3-ol] | < 100 nM
2 | Cc1cc(Nc2nccc(C(F)(F)F)n2)cc(-c2ccc(NCc3cn(C)cn3)nc2)c1 [Example 7.25, N-[3-methyl-5-(6-{[(1-methyl-1H-imidazol-4-yl)methyl]amino}pyridin-3-yl)phenyl]-4-(trifluoromethyl)pyrimidin-2-amine] | < 100 nM
3 | Cc1cc(Nc2nccc(C(F)(F)F)n2)cc(-c2ccc(N(CCC#N)CC(=O)O)nc2)c1 [Example 7.75, N-(2-cyanoethyl)-N-[5-(3-methyl-5-{[4-(trifluoromethyl)pyrimidin-2-yl]amino}phenyl)pyridin-2-yl]glycine] | < 100 nM
4 | Cc1cc(Nc2nccc(C(F)(F)F)n2)cc(-c2ccc(C(N)=O)nc2)c1 [Example 12.6, 5-(3-methyl-5-{[4-(trifluoromethyl)pyrimidin-2-yl]amino}phenyl)pyridine-2-carboxamide] | < 100 nM
5 | Cc1cc(Nc2nccc(C(F)(F)F)n2)cc(-c2ccc(N(C)CC(N)=O)nc2)c1 [Example 7.153, N~2~-methyl-N~2~-[5-(3-methyl-5-{[4-(trifluoromethyl)pyrimidin-2-yl]amino}phenyl)pyridin-2-yl]glycinamide] | < 100 nM
6 | CC1(C)CC(O)(c2ccc(-c3cc(Nc4nccc(C(F)(F)F)n4)cc(C(F)F)c3)cn2)CCC1C(=O)O (single isomer, unassigned) [Example 9.13, (1S,4R or 1R,4S)-4-{5-[3-(difluoromethyl)-5-{[4-(trifluoromethyl)pyrimidin-2-yl]amino}phenyl]pyridin-2-yl}-4-hydroxy-2,2-dimethylcyclohexanecarboxylic acid] | < 100 nM
7 | Cc1cc(Nc2nccc(C(F)(F)F)n2)cc(-c2ccc(C(=O)N3CCN(C)C(=O)C3C)nc2)c1 (stereo not drawn) [Example 16.23, 1,3-dimethyl-4-{[5-(3-methyl-5-{[4-(trifluoromethyl)pyrimidin-2-yl]amino}phenyl)pyridin-2-yl]carbonyl}piperazin-2-one] | 100 to 1000 nM
8 | CC(=O)N1CCN(C(=O)c2ccc(-c3cc(C)cc(Nc4nccc(C(F)(F)F)n4)c3)cn2)CC1 [Example 16.24, N-(3-{6-[(4-acetylpiperazin-1-yl)carbonyl]pyridin-3-yl}-5-methylphenyl)-4-(trifluoromethyl)pyrimidin-2-amine] | < 100 nM
9 | CCOC(=O)C1(C)CCC(O)(c2ccc(-c3cc(C)cc(Nc4nccc(C(F)(F)F)n4)c3)cn2)CC1 (stereo not drawn) [Example 9.44, ethyl 4-hydroxy-1-methyl-4-[5-(3-methyl-5-{[4-(trifluoromethyl)pyrimidin-2-yl]amino}phenyl)pyridin-2-yl]cyclohexanecarboxylate] | 100 to 1000 nM
10 | CCOC(=O)c1cncc(-c2cc(C)cc(Nc3nccc(C(F)(F)F)n3)c2)c1 [Example 2.68, ethyl 5-(3-methyl-5-{[4-(trifluoromethyl)pyrimidin-2-yl]amino}phenyl)pyridine-3-carboxylate] | < 100 nM
11 | CC(=O)NCCCNc1cc(-c2cc(C)cc(Nc3nccc(C(F)(F)F)n3)c2)ccn1 [Example 15.80, N-(3-{[4-(3-methyl-5-{[4-(trifluoromethyl)pyrimidin-2-yl]amino}phenyl)pyridin-2-yl]amino}propyl)acetamide] | 100 to 1000 nM
12 | COC(=O)c1cncc(-c2cc(C)cc(Nc3nccc(C(F)(F)F)n3)c2)c1 [Example 2.53, methyl 5-(3-methyl-5-{[4-(trifluoromethyl)pyrimidin-2-yl]amino}phenyl)pyridine-3-carboxylate] | 100 to 1000 nM
13 | Cc1cc(Nc2nccc(C(F)(F)F)n2)cc(-c2cncc(C(=O)NCC(O)CO)c2)c1 (stereo not drawn) [Example 15.90, N-(2,3-dihydroxypropyl)-5-(3-methyl-5-{[4-(trifluoromethyl)pyrimidin-2-yl]amino}phenyl)pyridine-3-carboxamide] | < 100 nM
14 | Cc1cc(Nc2nccc(C(F)(F)F)n2)cc(-c2ccc(N3CCC[C@@H]3C(=O)O)nc2)c1 [Example 7.110, 1-[5-(3-methyl-5-{[4-(trifluoromethyl)pyrimidin-2-yl]amino}phenyl)pyridin-2-yl]-D-prolilne] | < 100 nM
15 | Cc1cc(Nc2nccc(C(F)(F)F)n2)cc(-c2ccc(N3CCCCC3CC(=O)O)nc2)c1 (stereo not drawn) [Example 7.132, {1-[5-(3-methyl-5-{[4-(trifluoromethyl)pyrimidin-2-yl]amino}phenyl)pyridin-2-yl]piperidin-2-yl}acetic acid] | < 100 nM
16 | Cc1cc(Nc2nccc(C(F)(F)F)n2)cc(-c2ccc(NCC3CCC(C(=O)O)CC3)nc2)c1 (stereo not drawn) [Example 7.148, 4-({[5-(3-methyl-5-{[4-(trifluoromethyl)pyrimidin-2-yl]amino}phenyl)pyridin-2-yl]amino}methyl)cyclohexanecarboxylic acid] | < 100 nM
17 | Cc1cc(Nc2nccc(C(F)(F)F)n2)cc(-c2ccnc(N3CC(O)C3)c2)c1 [Example 15.53, 1-[4-(3-methyl-5-{[4-(trifluoromethyl)pyrimidin-2-yl]amino}phenyl)pyridin-2-yl] azetidin-3-ol] | < 100 nM

Row | Compound | IC50
18 | Cc1cc(Nc2nccc(C(F)(F)F)n2)cc(-c2ccnc(N3CCCC4(CCNC4=O)C3)c2)c1 (stereo not drawn) [Example 15.29, 7-[4-(3-methyl-5-{[4-(trifluoromethyl)pyrimidin-2-yl]amino}phenyl)pyridin-2-yl]-2,7-diazaspiro[4.5]decan-1-one] | < 100 nM
19 | Cc1cc(Nc2nccc(C(F)(F)F)n2)cc(-c2ccc(C(=O)NC(C)(C)CO)nc2)c1 [Example 16.11, N-(2-hydroxy-1,1-dimethylethyl)-5-(3-methyl-5-{[4-(trifluoromethyl)pyrimidin-2-yl]amino}phenyl)pyridine-2-carboxamide] | 100 to 1000 nM
20 | Cc1cc(Nc2nccc(C(F)(F)F)n2)cc(-c2ccc(NC(C)(c3nnn[nH]3)C(C)(C)C)nc2)c1 (stereo not drawn) [Example 18.9, N-[3-methyl-5-(6-{[1,2,2-trimethyl-1-(1H-tetrazol-5-yl)propyl]amino}pyridin-3-yl)phenyl]-4-(trifluoromethyl)pyrimidin-2-amine] | < 100 nM
21 | Cc1cc(Nc2nccc(C(F)(F)F)n2)cc(-c2ccc(N3CCCC4(C3)OCCO4)nc2)c1 [Example 7.12, N-{3-[6-(1,4-dioxa-7-azaspiro[4.5]dec-7-yl)pyridin-3-yl]-5-methylphenyl}-4-(trifluoromethyl)pyrimidin-2-amine] | 100 to 1000 nM
22 | CCC(C)(C#N)Nc1ccc(-c2cc(C)cc(Nc3nccc(C(F)(F)F)n3)c2)cn1 (stereo not drawn) [Example 7.118, 2-methyl-2-{[5-(3-methyl-5-{[4-(trifluoromethyl)pyrimidin-2-yl]amino}phenyl)pyridin-2-yl]amino}butanenitrile] | < 100 nM
23 | Cc1cc(Nc2nccc(C(F)(F)F)n2)cc(-c2ccnc(N3CCNCC3)c2)c1 [Example 2.126, N-[3-methyl-5-(2-piperazin-1-ylpyridin-4-yl)phenyl]-4-(trifluoromethyl)pyrimidin-2-amine] | < 100 nM
24 | Cc1cc(Nc2nccc(C(F)(F)F)n2)cc(-c2ccc(/C=C/C(=O)O)nc2)c1 [Example 22.2, 3-[5-(3-Methyl-5-{[4-(trifluoromethyl)pyrimidin-2-yl]amino}phenyl)pyridin-2-yl]prop-2-enoic acid] | < 100 nM
25 | Cc1cc(Nc2nccc(C(F)(F)F)n2)cc(-c2ccc(C(=O)N3CCC(C)(O)C3)nc2)c1 (stereo not drawn) [Example 16.42, 3-methyl-1-{[5-(3-methyl-5-{[4-(trifluoromethyl)pyrimidin-2-yl]amino}phenyl)pyridin-2-yl]carbonyl}pyrrolidin-3-ol] | < 100 nM
26 | CCOC(=O)C1CCC(O)(c2ccc(-c3cc(C)cc(Nc4nccc(C(F)(F)F)n4)c3)cn2)C1(C)C (stereo not drawn) [Example 9.47, ethyl 3-hydroxy-2,2-dimethyl-3-[5-(3-methyl-5-{[4-(trifluoromethyl)pyrimidin-2-yl]amino}phenyl)pyridin-2-yl]cyclopentanecarboxylate] | 1000 to 10000 nM
27 | Cc1cc(Nc2nccc(C(F)(F)F)n2)cc(-c2ccc(N[C@H]3CC[C@H](C(=O)O)CC3)nc2)c1 [Example 7.143, trans-4-{[5-(3-methyl-5-{[4-(trifluoromethyl)pyrimidin-2-yl]amino}phenyl)pyridin-2-yl]amino}cyclohexanecarboxylic acid] | < 100 nM
28 | Cc1cc(Nc2nccc(C(F)(F)F)n2)cc(-c2ccnc(N3CCC(C(N)=O)CC3)c2)c1 [Example 15.46, 1-[4-(3-methyl-5-{[4-(trifluoromethyl)pyrimidin-2-yl]amino}phenyl)pyridin-2-yl]piperidine-4-carboxamide] | < 100 nM
29 | Cc1cc(Nc2nccc(C(F)(F)F)n2)cc(-c2ccc(N3CCC(C(N)=O)CC3)nc2)c1 [Example 7.32, 1-[5-(3-methyl-5-{[4-(trifluoromethyl)pyrimidin-2-yl]amino}phenyl)pyridin-2-yl]piperidine-4-carboxamide] | < 100 nM
30 | Cc1cc(Nc2nccc(C(F)(F)F)n2)cc(-c2ccc(N3CCCC4(CCNC4=O)C3)nc2)c1 (stereo not drawn) [Example 7.13] | 100 to 1000 nM
31 | Cc1cc(Nc2nccc(C)n2)cc(-c2cc(CCC(=O)O)ccn2)c1 [Example 2.23, 3-(2-{3-methyl-5-[(4-methylpyrimidin-2-yl)amino]phenyl}pyridin-4-yl)propanoic acid] | < 100 nM
32 | Cc1cc(Nc2nccc(C(F)(F)F)n2)cc(-c2ccc(C3(O)CCNC(=O)CC3)nc2)c1 (stereo not drawn) [Example 11.1, 5-Hydroxy-5-[5-(3-methyl-5-{[4-(trifluoromethyl)pyrimidin-2-yl]amino}phenyl)pyridin-2-yl]azepan-2-one] | < 100 nM
33 | Cc1cc(Nc2nccc(C(F)(F)F)n2)cc(-c2ccc(N3CSCC3C(=O)O)nc2)c1 (stereo not drawn) [Example 7.137, 3-[5-(3-methyl-5-{[4-(trifluoromethyl)pyrimidin-2-yl]amino}phenyl)pyridin-2-yl]-1,3-thiazolidine-4-carboxylic acid] | < 100 nM
